According to patent US10023557B2 (LifeSci Pharmaceuticals, Inc., priority 2015, dated 2018):

Legend:
human plasma kallikrein = human plasma kallikrein (Homo sapiens (Human), UniProt P03952); experiment: In vitro enzyme inhibition of human plasma kallikrein (PFR-AMC cleavage); format: biochemical; conditions: Pro-Phe-Arg-AMC substrate, 37° C., read-out: hPK IC50
In short: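 Human plasma kallikrein and compound, diluted in 50 mM Tris-HCl pH 7.5, 150 mM NaCl, 0.01% Triton X-100, preincubated 5 min at 37 °C before PFR-AMC was added.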

[1] = molecular target: cellular kallikrein activity (Homo sapiens (Human), UniProt P03952); experiment: In vitro cellular assay (contact assay): kallikrein activity in ellagic acid-activated human plasma, Z-FR-2-AMC substrate; format: biochemical; conditions: human plasma activated with ellagic acid, 37° C.
Method: The ability of the compounds disclosed herein to inhibit cellular kallikrein activity was quantified and the respective EC50 value was determined.
All dilutions were prepared in an assay buffer comprising 50 mM Tris-HCl pH 7.2, 150 mM NaCl, and 0.01% Triton X-100.
The ten solutions of the test compounds, prepared by serial dilution, were further diluted 50-fold in the assay buffer.
Human plasma is thawed on ice and centrifuged for 15 min at 4° C. to remove platelets. A 1 mM stock solution of ellagic acid is diluted to 8 μM and mixed with human plasma, after removing platelets, at a ratio of 1:0.8.
A 22.5 μL volume of the final mixture of human plasma and ellagic acid was added to a 96-well microwell plate and the plate was incubated for 15 min at 37° C.
The CINH inhibitor at various concentrations, prepared by serial dilutions as described above, were added to the inhibitor control wells. […] Each CINH concentration is tested in duplicates.
The test compounds at various concentrations, also prepared by serial dilutions as described above, are added to the test wells. […] Each test compound concentration was tested in duplicates.
In addition to the inhibitor control and test wells, the 96 well assay plate includes positive control wells which contained the mixture of human plasma and ellagic acid without C1NH inhibitor or test compounds, and background wells which contained neither the mixture of human plasma and ellagic acid nor the test compounds. The total volume of liquid in positive control and background wells was brought up to 35 μL, using the assay buffer.
The assay plate containing C1NH inhibitors and test compounds mixed with human plasma and ellagic acid and appropriate controls was incubated at 37° C. for 5 min. […] The reagents were mixed well by shaking the plate gently for 30 sec.
The enzyme reaction was quantified by immediate kinetic reading of the assay plate using excitation/emission wavelengths of 330 nm/440 nm respectively. Fluorescence intensity was recorded for 60 min, using a time interval of 43 sec.
The inhibition activity of the test compounds were evaluated using the EC50 values, calculated according to the dose-response curve of the test compounds, fitted using the “log(inhibitor)−response (variable slope)” equation in GraphPadPrism software (GraphPad Software, Inc.).
The percentage inhibition was calculated using the following equation:
[formula] where, Mean (BG) is the average value of the fluorescence intensity of the background wells and Mean (PC) is the average value of the fluorescence intensity of the positive control wells.
Table 4 provides the EC50 values of various compounds disclosed herein.

Chain of human plasma kallikrein (P03952 391-638): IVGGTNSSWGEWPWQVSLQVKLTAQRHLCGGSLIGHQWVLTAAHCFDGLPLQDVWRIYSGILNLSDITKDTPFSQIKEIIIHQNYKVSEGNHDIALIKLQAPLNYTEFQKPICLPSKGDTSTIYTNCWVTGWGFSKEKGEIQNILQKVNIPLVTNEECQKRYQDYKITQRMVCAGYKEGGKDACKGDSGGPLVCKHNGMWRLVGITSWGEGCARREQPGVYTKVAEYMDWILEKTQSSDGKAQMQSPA
Chain of human plasma kallikrein (P03952 20-390 partner): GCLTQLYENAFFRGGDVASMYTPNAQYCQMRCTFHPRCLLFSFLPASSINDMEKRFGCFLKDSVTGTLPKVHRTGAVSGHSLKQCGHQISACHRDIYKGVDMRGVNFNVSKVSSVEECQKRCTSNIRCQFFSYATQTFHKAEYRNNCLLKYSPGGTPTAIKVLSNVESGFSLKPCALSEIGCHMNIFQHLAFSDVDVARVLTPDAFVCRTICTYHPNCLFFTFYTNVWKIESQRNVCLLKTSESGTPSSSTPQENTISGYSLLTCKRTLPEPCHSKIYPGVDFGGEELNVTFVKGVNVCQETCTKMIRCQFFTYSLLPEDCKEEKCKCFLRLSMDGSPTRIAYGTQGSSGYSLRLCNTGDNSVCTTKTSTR
Chain of cellular kallikrein activity (P03952 391-638): as the sequence (P03952 391-638) above
Chain of cellular kallikrein activity (P03952 20-390 partner): as the sequence (P03952 20-390 partner) above

Row | SMILES | IC50 (human plasma kallikrein) [nM] | EC50 [1] [nM]
1 | Cc1cc(N)nc(C)c1CNC(=O)c1cc(CN)nc(Cc2ccc3ncc(Cl)cc3c2)c1 [Example 211, N-((6-amino-2,4-dimethylpyridin-3-yl)methyl)-2-(aminomethyl)-6-((3-chloroquinolin-6-yl)methyl)isonicotinamide] | < 100 | < 100
2 | Cc1cc(N)nc(C)c1CNC(=O)c1cc(CO)nc(Cc2ccc3ncc(Cl)cc3c2)c1 [Example 212, N-((6-amino-2,4-dimethylpyridin-3-yl)methyl)-2-((3-chloroquinolin-6-yl)methyl)-6-(hydroxymethyl)isonicotinamide] | < 100 | < 100
3 | Cc1cc(N)nc(C)c1CNC(=O)c1cc(CC#N)nc(Cc2ccc3ncc(Cl)cc3c2)c1 [Example 213, N-((6-amino-2,4-dimethylpyridin-3-yl)methyl)-2-((3-chloroquinolin-6-yl)methyl)-6-(cyanomethyl)isonicotinamide] | < 100 | < 100
4 | Cc1cc(N)nc(C)c1CNC(=O)c1cc(CC(N)=O)nc(Cc2ccc3ncc(Cl)cc3c2)c1 [Example 214, N-((6-amino-2,4-dimethylpyridin-3-yl)methyl)-2-(2-amino-2-oxoethyl)-6-((3-chloroquinolin-6-yl)methyl)isonicotinamide] | < 100 | < 100
5 | Cc1cc(N)nc(C)c1CNC(=O)c1ccnc(Cc2cc3cc(C(F)(F)F)cnc3[nH]2)c1 [Example 215, N-((6-amino-2,4-dimethylpyridin-3-yl)methyl)-2-((5-(trifluoromethyl)-1H-pyrrolo[2,3-b]pyridin-2-yl)methyl)isonicotinamide] | < 100 | 100 to 1000
6 | Cc1cc(N)nc(C)c1CNC(=O)c1ccnc(Cc2cc(N)c3ncc(Cl)cc3c2)c1 [Example 217, N-((6-amino-2,4-dimethylpyridin-3-yl)methyl)-2-((8-amino-3-chloroquinolin-6-yl)methyl)isonicotinamide] | < 100 | < 100
7 | Cc1cc(N)nc(C)c1CNC(=O)c1ccnc(Cc2cc(C(C)(C)O)c3ncc(Cl)cc3c2)c1 [Example 219, N-((6-amino-2,4-dimethylpyridin-3-yl)methyl)-2-((3-chloro-8-(2-hydroxypropan-2-yl)quinolin-6-yl)methyl)isonicotinamide] | < 100 | < 100
8 | Cc1nc(N)ccc1CNC(=O)c1ccnc(Cc2cc(C(C)(C)O)c3ncc(Cl)cc3c2)c1 [Example 220, N-((6-amino-2-methylpyridin-3-yl)methyl)-2-((3-chloro-8-(2-hydroxypropan-2-yl)quinolin-6-yl)methyl)isonicotinamide] | < 100 | < 100
9 | CC(C)(O)c1cc(Cc2cc(C(=O)NCc3cc4c(Cl)c[nH]c4cc3F)ccn2)cc2cc(Cl)cnc12 [Example 221, N-((3-chloro-6-fluoro-1H-indol-5-yl)methyl)-2-((3-chloro-8-(2-hydroxypropan-2-yl)quinolin-6-yl)methyl)isonicotinamide] | < 100 | 100 to 1000
10 | CC(C)(O)c1cc(Cc2cc(C(=O)NCc3ccc4[nH]cc(Cl)c4c3F)ccn2)cc2cc(Cl)cnc12 [Example 222, N-((3-chloro-4-fluoro-1H-indol-5-yl)methyl)-2-((3-chloro-8-(2-hydroxypropan-2-yl)quinolin-6-yl)methyl)isonicotinamide] | < 100 | 100 to 1000
11 | CC(C)(O)c1cc(Cc2cc(C(=O)NCc3cnc4[nH]cc(Cl)c4c3)ccn2)cc2cc(Cl)cnc12 [Example 223, N-((3-chloro-1H-pyrrolo[2,3-b]pyridin-5-yl)methyl)-2-((3-chloro-8-(2-hydroxypropan-2-yl)quinolin-6-yl)methyl)isonicotinamide] | < 100 | < 100
12 | CC(C)(O)c1cc(Cc2cc(C(=O)NCc3ccc4c(N)nccc4c3)ccn2)cc2cc(Cl)cnc12 [Example 224, N-((1-aminoisoquinolin-6-yl)methyl)-2-((3-chloro-8-(2-hydroxypropan-2-yl)quinolin-6-yl)methyl)isonicotinamide] | < 100 | < 100
